Results taken from PubChem BioAssay AID1963836 (Molecular Pharmacology Branch, DTP, NCI, 2024).

System: 857933-349-R-J2-PDC complex spheroid viability
Assay: Anticancer human tumor 857933-349-R-J2-PDC patient-derived colon adenocarcinoma cell line growth inhibition [POLQ]
Conditions: for IC50: curve of first compound; for viability, T/C: stronger effect = lower value
How it was run: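 PDC + HUVEC + MSC complex spheroids; POLQ inhibitors ± partner drugs; top conc. at/near clinical Cmax, else 10 microM (SN-38 1 microM), half-log dilutions; 37 degrees C, 5% CO2.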

[1] = second compound 0.0316 µM, first compound 0.0316 µM
[2] = second compound 0.0316 µM, first compound 0.1 µM
[3] = second compound 0.0316 µM, first compound 0.316 µM
[4] = second compound 0.0316 µM, first compound 1 µM
[5] = second compound 0.1 µM, first compound 0.0316 µM
[6] = second compound 0.1 µM, first compound 0.1 µM
[7] = second compound 0.1 µM, first compound 0.316 µM
[8] = second compound 0.1 µM, first compound 1 µM
[9] = second compound 0.316 µM, first compound 0.0316 µM
[10] = second compound 0.316 µM, first compound 0.1 µM
[11] = second compound 0.316 µM, first compound 0.316 µM
[12] = second compound 0.316 µM, first compound 1 µM
[13] = second compound 1 µM, first compound 0.0316 µM
[14] = second compound 1 µM, first compound 0.1 µM
[15] = second compound 1 µM, first compound 0.316 µM
[16] = second compound 1 µM, first compound 1 µM
[17] = second compound 3.16 µM, first compound 0.0316 µM
[18] = second compound 3.16 µM, first compound 0.1 µM
[19] = second compound 3.16 µM, first compound 0.316 µM
[20] = second compound 3.16 µM, first compound 1 µM
[21] = second compound 10 µM, first compound 0.0316 µM
[22] = second compound 10 µM, first compound 0.1 µM
[23] = second compound 10 µM, first compound 0.316 µM
[24] = second compound 10 µM, first compound 1 µM
[25] = second compound 0.0316 µM, first compound 3.16 µM
[26] = second compound 0.0316 µM, first compound 10 µM
[27] = second compound 0.1 µM, first compound 3.16 µM
[28] = second compound 0.1 µM, first compound 10 µM
[29] = second compound 0.316 µM, first compound 3.16 µM
[30] = second compound 0.316 µM, first compound 10 µM
[31] = second compound 1 µM, first compound 3.16 µM
[32] = second compound 1 µM, first compound 10 µM
[33] = second compound 3.16 µM, first compound 3.16 µM
[34] = second compound 3.16 µM, first compound 10 µM
[35] = second compound 10 µM, first compound 3.16 µM
[36] = second compound 10 µM, first compound 10 µM
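Note: spheroids exposed to compounds for seven days before readout.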

Molecule `C=CCn1c(=O)c2cnc(Nc3ccc(N4CCN(C)CC4)cc3)nc2n1-c1cccc(C(C)(C)O)n1` + COC1C(OC(N)=O)C(O)C(Oc2ccc3c(O)c(NC(=O)c4ccc(O)c(CC=C(C)C)c4)c(=O)oc3c2C)OC1(C)C has an IC50 (second compound 0.0316 µM) of over 1 µM, an IC50 (second compound 0.1 µM) of over 1 µM and an IC50 (second compound 0.316 µM) of over 1 µM. The IC50 (second compound 1 µM) was over 1 µM, the IC50 (second compound 3.16 µM) was over 1 µM and the IC50 (second compound 10 µM) was over 1 µM. It also gave a viability, T/C (second compound 0.0316 µM, first compound 0.00316 µM) of 89.8%, a viability, T/C (second compound 0.0316 µM, first compound 0.01 µM) of 96.5% and a viability, T/C [1] of 76.7%. For the same molecule, the viability, T/C [2] was 81.7%, the viability, T/C [3] was 84.6% and the viability, T/C [4] was 80.9%. For the same molecule, the viability, T/C (second compound 0.1 µM, first compound 0.00316 µM) was 97.9%, the viability, T/C (second compound 0.1 µM, first compound 0.01 µM) was 106% and the viability, T/C [5] was 112%. It also gave a viability, T/C [6] of 89.4%, a viability, T/C [7] of 74.3% and a viability, T/C [8] of 64.7%. For the same molecule, the viability, T/C (second compound 0.316 µM, first compound 0.00316 µM) was 92.4%, the viability, T/C (second compound 0.316 µM, first compound 0.01 µM) was 95.3% and the viability, T/C [9] was 91%. The viability, T/C [10] was 78.8%, the viability, T/C [11] was 79.2% and the viability, T/C [12] was 64.1%. For the same molecule, the viability, T/C (second compound 1 µM, first compound 0.00316 µM) was 102%, the viability, T/C (second compound 1 µM, first compound 0.01 µM) was 80.4% and the viability, T/C [13] was 88.7%. The viability, T/C [14] was 87.3%, the viability, T/C [15] was 95.8% and the viability, T/C [16] was 61.8%. It also gave a viability, T/C (second compound 3.16 µM, first compound 0.00316 µM) of 92%, a viability, T/C (second compound 3.16 µM, first compound 0.01 µM) of 86.6% and a viability, T/C [17] of 74.6%. The viability, T/C [18] was 74.2%, the viability, T/C [19] was 91.1% and the viability, T/C [20] was 77.5%. The viability, T/C (second compound 10 µM, first compound 0.00316 µM) was 83.8%, the viability, T/C (second compound 10 µM, first compound 0.01 µM) was 86.8% and the viability, T/C [21] was 91.8%. It also gave a viability, T/C [22] of 72.5%, a viability, T/C [23] of 83.9% and a viability, T/C [24] of 67.5%.

`CCCS(=O)(=O)Nc1ccc(F)c(C(=O)c2c[nH]c3ncc(-c4ccc(Cl)cc4)cc23)c1F` + COC1C(OC(N)=O)C(O)C(Oc2ccc3c(O)c(NC(=O)c4ccc(O)c(CC=C(C)C)c4)c(=O)oc3c2C)OC1(C)C was tested, and the IC50 (second compound 0.0316 µM) was 5.65 µM, the IC50 (second compound 0.1 µM) was 6.17 µM and the IC50 (second compound 0.316 µM) was 5.04 µM. The IC50 (second compound 1 µM) was 5.74 µM, the IC50 (second compound 3.16 µM) was 5.75 µM and the IC50 (second compound 10 µM) was 6.76 µM. The viability, T/C [1] was 73.7%, the viability, T/C [2] was 113% and the viability, T/C [3] was 96.1%. The viability, T/C [4] was 117%, the viability, T/C [25] was 85% and the viability, T/C [26] was 15.7%. The viability, T/C [5] was 96.9%, the viability, T/C [6] was 112% and the viability, T/C [7] was 107%. The viability, T/C [8] was 109%, the viability, T/C [27] was 103% and the viability, T/C [28] was 12.1%. The viability, T/C [9] was 132%, the viability, T/C [10] was 121% and the viability, T/C [11] was 76.7%. The viability, T/C [12] was 99.8%, the viability, T/C [29] was 85% and the viability, T/C [30] was 12.4%. For the same molecule, the viability, T/C [13] was 108%, the viability, T/C [14] was 77.6% and the viability, T/C [15] was 121%. The viability, T/C [16] was 94.5%, the viability, T/C [31] was 89.9% and the viability, T/C [32] was 13.3%. The viability, T/C [17] was 108%, the viability, T/C [18] was 117% and the viability, T/C [19] was 101%. It also gave a viability, T/C [20] of 95.5%, a viability, T/C [33] of 89.2% and a viability, T/C [34] of 16.6%. For the same molecule, the viability, T/C [21] was 93.9%, the viability, T/C [22] was 83.7% and the viability, T/C [23] was 93.7%. For the same molecule, the viability, T/C [24] was 82.5%, the viability, T/C [35] was 87.1% and the viability, T/C [36] was 30.9%.

In the case of `CCc1cc2c(N3CCc4c(cc(Cn5ccnc5)cc4-c4cn(C)nc4C(F)(F)F)C3=O)ccnc2c(OC)n1` + COC1C(OC(N)=O)C(O)C(Oc2ccc3c(O)c(NC(=O)c4ccc(O)c(CC=C(C)C)c4)c(=O)oc3c2C)OC1(C)C, the IC50 (second compound 0.0316 µM) is reported as over 10 µM, the IC50 (second compound 0.1 µM) is reported as 7.52 µM and the IC50 (second compound 0.316 µM) is reported as over 10 µM. For the same molecule, the IC50 (second compound 1 µM) was over 10 µM, the IC50 (second compound 3.16 µM) was over 10 µM and the IC50 (second compound 10 µM) was over 10 µM. It also gave a viability, T/C [1] of 88.9%, a viability, T/C [2] of 93.4% and a viability, T/C [3] of 106%. For the same molecule, the viability, T/C [4] was 75.6%, the viability, T/C [25] was 66% and the viability, T/C [26] was 51.8%. It also gave a viability, T/C [5] of 103%, a viability, T/C [6] of 93.1% and a viability, T/C [7] of 80.2%. The viability, T/C [8] was 84.2%, the viability, T/C [27] was 61% and the viability, T/C [28] was 44.6%. It also gave a viability, T/C [9] of 90.4%, a viability, T/C [10] of 104% and a viability, T/C [11] of 73.4%. It also gave a viability, T/C [12] of 71.5%, a viability, T/C [29] of 65.4% and a viability, T/C [30] of 58.4%. For the same molecule, the viability, T/C [13] was 90%, the viability, T/C [14] was 79% and the viability, T/C [15] was 74.9%. The viability, T/C [16] was 69.8%, the viability, T/C [31] was 61.3% and the viability, T/C [32] was 59.5%. The viability, T/C [17] was 96.3%, the viability, T/C [18] was 98.2% and the viability, T/C [19] was 82.7%. The viability, T/C [20] was 73.6%, the viability, T/C [33] was 75.3% and the viability, T/C [34] was 58.2%. It also gave a viability, T/C [21] of 99.6%, a viability, T/C [22] of 94.5% and a viability, T/C [23] of 75.6%. It also gave a viability, T/C [24] of 92.3%, a viability, T/C [35] of 59.7% and a viability, T/C [36] of 62.8%.
